≈ marks a conversion by molar mass, not a printed value. Calls of active or inactive are those of the source. The rule behind the calls is not given here.
Key:
[1] = target: Voltage-gated inwardly rectifying potassium channel KCNH2 (Homo sapiens, UniProt Q12809); test: Inhibition of human ERG
[2] = Cytotoxicity against human HeLa cells assessed as growth inhibition at 20 uM by Celltiter-Glo luminescence assay; assay type: cell-based; conditions: read-out: GI
Escherichia coli [3] = test: Antibacterial activity against duck Escherichia coli clinical isolates assessed as diameter of zone of inhibition at 80 ug/ml after 18 hrs by agar diffusion method; assay type: functional; conditions: for zone of inhibition at 80 µg/mL: read-out: DIZ
Pseudomonas aeruginosa [4] = test: Antibacterial activity against Pseudomonas aeruginosa PS1.0050 assessed as diameter of zone of inhibition at 80 ug/ml after 18 hrs by agar diffusion method; assay type: functional; conditions: for zone of inhibition at 80 µg/mL: PS1.0050, 18 h, read-out: DIZ
HeLa = test: Cytotoxicity against human HeLa cells by Celltiter-Glo luminescence assay; assay type: cell-based
[5] = system: Mycobacterium tuberculosis; test: Antitubercular activity against Mycobacterium tuberculosis H37Rv assessed as growth inhibition at 20 uM after 6 days by […]; assay type: functional; conditions: 144 h, read-out: GI
[6] = system: Mycobacterium tuberculosis; test: Antitubercular activity against Mycobacterium tuberculosis H37Rv after 6 days by […]; assay type: functional; conditions: 144 h
Staphylococcus aureus [7] = test: Antibacterial activity against Staphylococcus aureus ATCC 29213 assessed as diameter of zone of inhibition at 80 ug/ml after 18 hrs by agar diffusion method; assay type: functional; conditions: for zone of inhibition at 80 µg/mL: ATCC 29213, 18 h, read-out: DIZ
Salmonella [8] = test: Antibacterial activity against Salmonella S1.1152 assessed as diameter of zone of inhibition at 80 ug/ml after 18 hrs by agar diffusion method; assay type: functional; conditions: for zone of inhibition at 80 µg/mL: S1.1152, 18 h, read-out: DIZ
Staphylococcus aureus [9] = test: Antibacterial activity against Staphylococcus aureus ATCC 29213 measured after 120 days of sample dissolution by serial dilution method; assay type: functional
Pseudomonas aeruginosa [10] = test: Antibacterial activity against Pseudomonas aeruginosa PS1.0050 measured after 120 days of sample dissolution by serial dilution method; assay type: functional
Escherichia coli [11] = test: Antibacterial activity against duck Escherichia coli clinical isolates measured after 120 days of sample dissolution by serial dilution method; assay type: functional
Salmonella [12] = test: Antibacterial activity against Salmonella S1.1152 measured after 120 days of sample dissolution by serial dilution method; assay type: functional

Sequence of Voltage-gated inwardly rectifying potassium channel KCNH2 (Q12809 whole entry): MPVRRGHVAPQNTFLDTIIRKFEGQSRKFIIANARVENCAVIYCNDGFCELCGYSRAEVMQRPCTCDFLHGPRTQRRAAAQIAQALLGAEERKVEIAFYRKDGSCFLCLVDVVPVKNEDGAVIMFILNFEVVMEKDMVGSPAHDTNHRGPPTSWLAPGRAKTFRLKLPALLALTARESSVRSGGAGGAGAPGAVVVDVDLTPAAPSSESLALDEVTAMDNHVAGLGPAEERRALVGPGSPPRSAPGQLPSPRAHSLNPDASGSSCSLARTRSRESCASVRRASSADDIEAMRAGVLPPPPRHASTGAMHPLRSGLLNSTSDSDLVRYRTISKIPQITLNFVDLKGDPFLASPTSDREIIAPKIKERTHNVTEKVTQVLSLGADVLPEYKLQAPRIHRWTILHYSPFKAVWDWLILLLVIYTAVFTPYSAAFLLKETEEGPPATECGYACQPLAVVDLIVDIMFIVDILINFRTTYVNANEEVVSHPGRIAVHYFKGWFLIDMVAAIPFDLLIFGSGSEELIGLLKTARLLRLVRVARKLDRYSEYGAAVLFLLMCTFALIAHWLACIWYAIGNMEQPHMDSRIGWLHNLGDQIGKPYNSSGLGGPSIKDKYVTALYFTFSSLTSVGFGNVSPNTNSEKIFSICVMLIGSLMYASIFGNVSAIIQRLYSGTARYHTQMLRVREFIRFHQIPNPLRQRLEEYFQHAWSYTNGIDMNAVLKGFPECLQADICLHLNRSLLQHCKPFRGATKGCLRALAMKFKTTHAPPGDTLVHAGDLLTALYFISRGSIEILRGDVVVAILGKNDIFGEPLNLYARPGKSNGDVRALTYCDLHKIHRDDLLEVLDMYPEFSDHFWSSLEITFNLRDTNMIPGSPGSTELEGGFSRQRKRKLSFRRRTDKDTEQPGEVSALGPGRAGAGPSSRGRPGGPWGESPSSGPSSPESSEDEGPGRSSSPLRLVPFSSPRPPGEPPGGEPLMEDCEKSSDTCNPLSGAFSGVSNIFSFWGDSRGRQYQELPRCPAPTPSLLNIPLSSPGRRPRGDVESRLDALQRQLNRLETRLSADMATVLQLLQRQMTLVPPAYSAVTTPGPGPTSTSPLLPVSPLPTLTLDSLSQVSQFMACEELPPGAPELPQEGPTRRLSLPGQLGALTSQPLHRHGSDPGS

For `O=C(Cn1cnc2ccccc21)NC1CCN(c2c(F)cc3c(=O)c(C(=O)O)cn(C4CC4)c3c2Cl)C1` (centres undefined), the IC50 [1] was over 1000 nM.
For `Cc1nccn1CC(=O)NC1CCN(c2c(F)cc3c(=O)c(C(=O)O)cn(C4CC4)c3c2Cl)C1` (centres undefined), the IC50 [1] was over 1000 nM.
For `Nc1nnc(SCCC(=O)NC2CCN(c3c(F)cc4c(=O)c(C(=O)O)cn(C5CC5)c4c3Cl)C2)s1` (centres undefined), the inhibition at 20 µM [2] was -21.2%, the “diameter of the inhibition zone (DIZ)” value (Escherichia coli [3]) was “inactive” and the “diameter of the inhibition zone (DIZ)” value (Pseudomonas aeruginosa [4]) was “inactive”. For the same compound, the IC50 [1] was over 1000 nM, the IC50 (HeLa) was over 20000 nM and the inhibition of growth at 20 µM [5] was 95.8%. For the same compound, the MIC [6] was 3.9 µM (≈ 2.16 µg/mL), the “diameter of the inhibition zone (DIZ)” value (Staphylococcus aureus [7]) was “inactive” and the “diameter of the inhibition zone (DIZ)” value (Salmonella [8]) was “inactive”.
For `O=C(Cn1ccnc1)NC1CCN(c2c(F)cc3c(=O)c(C(=O)O)cn(C4CC4)c3c2Cl)C1` (centres undefined), the IC50 [1] was over 1000 nM.
For `Nc1ccn(CC(=O)NC2CCN(c3c(F)cc4c(=O)c(C(=O)O)cn(C5CC5)c4c3Cl)C2)n1` (centres undefined), the inhibition at 20 µM [2] was -17.1%, the zone of inhibition at 80 µg/mL (Escherichia coli [3]) was 23 mm and the zone of inhibition at 80 µg/mL (Pseudomonas aeruginosa [4]) was 25 mm. The IC50 [1] was over 1000 nM, the MIC (Staphylococcus aureus [9]) was 16 µg/mL (≈ 32.7 µM) and the MIC (Pseudomonas aeruginosa [10]) was 2 µg/mL (≈ 4.09 µM). The inhibition of growth at 20 µM [5] was 98.5%, the MIC [6] was 1.69 µM (≈ 0.826 µg/mL) and the zone of inhibition at 80 µg/mL (Staphylococcus aureus [7]) was 23 mm. For the same compound, the MIC (Escherichia coli [11]) was over 16 µg/mL, the zone of inhibition at 80 µg/mL (Salmonella [8]) was 23 mm and the MIC (Salmonella [12]) was 16 µg/mL (≈ 32.7 µM).
`Cc1nccn1CCC(=O)NC1CCN(c2c(F)cc3c(=O)c(C(=O)O)cn(C4CC4)c3c2Cl)C1` (centres undefined) gave an IC50 [1] of over 1000 nM.
For `O=C(Cn1cnnn1)NC1CCN(c2c(F)cc3c(=O)c(C(=O)O)cn(C4CC4)c3c2Cl)C1` (centres undefined), the IC50 [1] was over 1000 nM.
Work on `O=C(Cn1nccn1)NC1CCN(c2c(F)cc3c(=O)c(C(=O)O)cn(C4CC4)c3c2Cl)C1` (centres undefined) yielded an IC50 [1] of over 1000 nM.
For `O=C(CSc1nc2ccccc2[nH]1)NC1CCN(c2c(F)cc3c(=O)c(C(=O)O)cn(C4CC4)c3c2Cl)C1` (centres undefined), the IC50 [1] was over 1000 nM.
With `O=C(CCn1ccnn1)NC1CCN(c2c(F)cc3c(=O)c(C(=O)O)cn(C4CC4)c3c2Cl)C1` (centres undefined) the inhibition at 20 µM [2] was -9.5%, the “diameter of the inhibition zone (DIZ)” value (Escherichia coli [3]) was “inactive” and the zone of inhibition at 80 µg/mL (Pseudomonas aeruginosa [4]) was 14 mm. It also gave an IC50 [1] of over 1000 nM, an IC50 (HeLa) of over 20000 nM and an inhibition of growth at 20 µM [5] of 96.9%. For the same compound, the MIC [6] was 2.95 µM (≈ 1.44 µg/mL), the zone of inhibition at 80 µg/mL (Staphylococcus aureus [7]) was 7 mm and the “diameter of the inhibition zone (DIZ)” value (Salmonella [8]) was “inactive”.
`O=C(CCn1cncn1)NC1CCN(c2c(F)cc3c(=O)c(C(=O)O)cn(C4CC4)c3c2Cl)C1` (centres undefined) showed an IC50 [1] of over 1000 nM.
For `Cc1cn(CCC(=O)NC2CCN(c3c(F)cc4c(=O)c(C(=O)O)cn(C5CC5)c4c3Cl)C2)cn1` (centres undefined), the IC50 [1] was over 1000 nM.
Work on `O=C(CCn1cccn1)NC1CCN(c2c(F)cc3c(=O)c(C(=O)O)cn(C4CC4)c3c2Cl)C1` (centres undefined) yielded an IC50 [1] of over 1000 nM.
`Cc1nnnn1CCC(=O)NC1CCN(c2c(F)cc3c(=O)c(C(=O)O)cn(C4CC4)c3c2Cl)C1` (centres undefined) gave an IC50 [1] of over 1000 nM.
Compound `O=C(CCn1cnc2ccccc21)NC1CCN(c2c(F)cc3c(=O)c(C(=O)O)cn(C4CC4)c3c2Cl)C1` (centres undefined) has an IC50 [1] of over 1000 nM.
Work on `Nc1nnn(CCC(=O)NC2CCN(c3c(F)cc4c(=O)c(C(=O)O)cn(C5CC5)c4c3Cl)C2)n1` (centres undefined) yielded an IC50 [1] of over 1000 nM.
Work on `Cn1nnc(SCC(=O)NC2CCN(c3c(F)cc4c(=O)c(C(=O)O)cn(C5CC5)c4c3Cl)C2)n1` (centres undefined) yielded an IC50 [1] of over 1000 nM.
Work on `O=C(Cn1cncn1)NC1CCN(c2c(F)cc3c(=O)c(C(=O)O)cn(C4CC4)c3c2Cl)C1` (centres undefined) yielded an IC50 [1] of over 1000 nM.
Compound `Cc1cc(C)n(CCC(=O)NC2CCN(c3c(F)cc4c(=O)c(C(=O)O)cn(C5CC5)c4c3Cl)C2)n1` (centres undefined) has an IC50 [1] of over 1000 nM.
For `O=C(Cn1cccn1)NC1CCN(c2c(F)cc3c(=O)c(C(=O)O)cn(C4CC4)c3c2Cl)C1` (centres undefined), the IC50 [1] was over 1000 nM.
Work on `Cc1nnn(CCC(=O)NC2CCN(c3c(F)cc4c(=O)c(C(=O)O)cn(C5CC5)c4c3Cl)C2)n1` (centres undefined) yielded an IC50 [1] of over 1000 nM.
`Cc1nnnn1CC(=O)NC1CCN(c2c(F)cc3c(=O)c(C(=O)O)cn(C4CC4)c3c2Cl)C1` (centres undefined) gave an IC50 [1] of over 1000 nM.
`Nc1nnn(CC(=O)NC2CCN(c3c(F)cc4c(=O)c(C(=O)O)cn(C5CC5)c4c3Cl)C2)n1` (centres undefined) showed an IC50 [1] of over 1000 nM.
In the case of `COc1ccc2[nH]c(SCC(=O)NC3CCN(c4c(F)cc5c(=O)c(C(=O)O)cn(C6CC6)c5c4Cl)C3)nc2c1` (centres undefined), the IC50 [1] is reported as over 1000 nM.
`O=C(Cn1ncnn1)NC1CCN(c2c(F)cc3c(=O)c(C(=O)O)cn(C4CC4)c3c2Cl)C1` (centres undefined) showed an IC50 [1] of over 1000 nM.
Compound `NC1CCN(c2c(F)cc3c(=O)c(C(=O)O)cn(C4CC4)c3c2Cl)C1` (centres undefined) [CLINAFLOXACIN] has a zone of inhibition at 80 µg/mL (Escherichia coli [3]) of 7 to 17 mm, a zone of inhibition at 80 µg/mL (Pseudomonas aeruginosa [4]) of 22 to 23 mm and an MIC (Staphylococcus aureus [9]) of 1 µg/mL (≈ 2.73 µM). For the same compound, the MIC (Pseudomonas aeruginosa [10]) was 0.125 µg/mL (≈ 0.342 µM), the zone of inhibition at 80 µg/mL (Staphylococcus aureus [7]) was 22 mm and the MIC (Escherichia coli [11]) was 2 µg/mL (≈ 5.47 µM). It also gave a zone of inhibition at 80 µg/mL (Salmonella [8]) of 13 to 21 mm and an MIC (Salmonella [12]) of 1 µg/mL (≈ 2.73 µM).
In the case of `Nc1n[nH]c(SCC(=O)NC2CCN(c3c(F)cc4c(=O)c(C(=O)O)cn(C5CC5)c4c3Cl)C2)n1` (centres undefined), the inhibition at 20 µM [2] is reported as -7.2%, the zone of inhibition at 80 µg/mL (Escherichia coli [3]) is reported as 14 mm and the zone of inhibition at 80 µg/mL (Pseudomonas aeruginosa [4]) is reported as 16 mm. The IC50 [1] was over 1000 nM, the IC50 (HeLa) was over 20000 nM and the MIC (Staphylococcus aureus [9]) was 16 µg/mL (≈ 30.7 µM). The MIC (Pseudomonas aeruginosa [10]) was 8 µg/mL (≈ 15.3 µM), the inhibition of growth at 20 µM [5] was 98.2% and the MIC [6] was 0.72 µM (≈ 0.376 µg/mL). It also gave a zone of inhibition at 80 µg/mL (Staphylococcus aureus [7]) of 16 mm, an MIC (Escherichia coli [11]) of over 16 µg/mL and a zone of inhibition at 80 µg/mL (Salmonella [8]) of 16 mm. For the same compound, the MIC (Salmonella [12]) was 16 µg/mL (≈ 30.7 µM).
Compound `O=C(Cn1nnc2ccccc21)NC1CCN(c2c(F)cc3c(=O)c(C(=O)O)cn(C4CC4)c3c2Cl)C1` (centres undefined) has an IC50 [1] of over 1000 nM.
With `O=C(CCn1nccn1)NC1CCN(c2c(F)cc3c(=O)c(C(=O)O)cn(C4CC4)c3c2Cl)C1` (centres undefined) the IC50 [1] was over 1000 nM.
Compound `O=C(CCn1ccnc1)NC1CCN(c2c(F)cc3c(=O)c(C(=O)O)cn(C4CC4)c3c2Cl)C1` (centres undefined) has an IC50 [1] of over 1000 nM.
`O=C(Cn1ccnn1)NC1CCN(c2c(F)cc3c(=O)c(C(=O)O)cn(C4CC4)c3c2Cl)C1` (centres undefined) gave an inhibition at 20 µM [2] of -10.1%, a zone of inhibition at 80 µg/mL (Escherichia coli [3]) of 16 mm and a zone of inhibition at 80 µg/mL (Pseudomonas aeruginosa [4]) of 19 mm. It also gave an IC50 [1] of over 1000 nM, an MIC (Staphylococcus aureus [9]) of 4 µg/mL (≈ 8.42 µM) and an MIC (Pseudomonas aeruginosa [10]) of 1 µg/mL (≈ 2.11 µM). The inhibition of growth at 20 µM [5] was 98.5%, the MIC [6] was 2.28 µM (≈ 1.08 µg/mL) and the zone of inhibition at 80 µg/mL (Staphylococcus aureus [7]) was 17 mm. The MIC (Escherichia coli [11]) was over 16 µg/mL, the zone of inhibition at 80 µg/mL (Salmonella [8]) was 19 mm and the MIC (Salmonella [12]) was 16 µg/mL (≈ 33.7 µM).
`Cc1cn(CC(=O)NC2CCN(c3c(F)cc4c(=O)c(C(=O)O)cn(C5CC5)c4c3Cl)C2)cn1` (centres undefined) gave an IC50 [1] of over 1000 nM.
`Nc1nnc(SCC(=O)NC2CCN(c3c(F)cc4c(=O)c(C(=O)O)cn(C5CC5)c4c3Cl)C2)s1` (centres undefined) gave an inhibition at 20 µM [2] of -11.2%, a zone of inhibition at 80 µg/mL (Escherichia coli [3]) of 12 mm and a zone of inhibition at 80 µg/mL (Pseudomonas aeruginosa [4]) of 15 mm. It also gave an IC50 [1] of over 1000 nM, an IC50 (HeLa) of over 20000 nM and an MIC (Staphylococcus aureus [9]) of 8 µg/mL (≈ 14.8 µM). It also gave an MIC (Pseudomonas aeruginosa [10]) of 4 µg/mL (≈ 7.42 µM), an inhibition of growth at 20 µM [5] of 99% and an MIC [6] of 0.66 µM (≈ 0.356 µg/mL). It also gave a zone of inhibition at 80 µg/mL (Staphylococcus aureus [7]) of 12 mm, an MIC (Escherichia coli [11]) of over 16 µg/mL and a zone of inhibition at 80 µg/mL (Salmonella [8]) of 12 mm. The MIC (Salmonella [12]) was 16 µg/mL (≈ 29.7 µM).
Compound `Cc1nnn(CC(=O)NC2CCN(c3c(F)cc4c(=O)c(C(=O)O)cn(C5CC5)c4c3Cl)C2)n1` (centres undefined) has an IC50 [1] of over 1000 nM.
`Cc1cc(C)n(CC(=O)NC2CCN(c3c(F)cc4c(=O)c(C(=O)O)cn(C5CC5)c4c3Cl)C2)n1` (centres undefined) gave an IC50 [1] of over 1000 nM.
